Results on 21 compounds are retold here after patent publication US5017723A, “Substituted ethylamines, their preparation process, their use as medicine and their synthesising agents” (Jouveinal S.A., priority 1990, dated 1991).

SMILES strings stand for the structures. Where two headings read alike, the source gives them in different places.

The test system of experiment [1] is convulsion induced by picrotoxine in mice. In words: Protection against picrotoxine-induced convulsion (suppression of the tonic extension phase). It is filed as in vivo, male Swiss mice. The conditions noted are these: for responders at 50 mg/kg / responders at 100 mg/kg / ED50: Mus musculus; for responders at 50 mg/kg: 0.5 h, read-out: i.p.: % prot. (percentage of protected animals), 50 mg/kg i.p., picrotoxine 24 mg/kg i.p. 30 min later; for responders at 100 mg/kg: 1 h, read-out: p.o.: % prot. (percentage of protected animals), 100 mg/kg p.o., picrotoxine 24 mg/kg i.p. 60 min later. An excerpt:
The psychotropic properties of the compounds have been determined by the protection of the induced convulsion by picrotoxine for mice, which is achieved by the method derived from that of Krall et al., "Epilepsia", 1978, 19, p. 409-428.
The administration of picrotoxine caused a convulsive crisis in the animal characterised by a myoclonic extension syndrome followed by the extension of the limbs causing the animal to die. Certain substances, particularly those active on the complex GABA/benzodiazepines/Cl-ionophore makes it possible to protect the animals from this convulsive crisis.
In practice the study is carried out on batches of 10 male "Swiss" mice weighing approximately 20 g, which are administered with the product to be studied in aqueous solution either by intraperitoneal route (i.p.) at the rate of 50 mg/kg and in a volume of 0.2 ml of solution per animal, or by oral route (p.o) in a volume of 2.0 ml of solution per animal.
An injection of a solution of picrotoxine at the rate of 24 mg/kg in a volume of 0.2 ml per animal is then administered by interperitoneal route, either 30 minutes after administering the product by interperitoneal route or 60 minutes after administering the product by oral route. The dose of the product injected causing a clonic crisis, which results in untreated animals dying. The suppression of the extension tonic phase in the animals treated under the conditions of the test is observed. The results are expressed:
either in percentages of protected animals of this phase to the reaction of 50 mg/kg of the compound of the study administered by i.p. route or 100 mg/kg by p.o route,
or in DE50 for each of these routes, which is the efficient dosage of the test compound expressed in mg/kg protecting 50% of the animals of this extension phase. The significant value of the results being generally indicated in the following manner:
* Significant result at p<0.05
** Significant result at p<0.01
*** Significant highly significant at p<0.001.

The target in experiment [2] is T1, opiated kappa receptor (Cavia porcellus, UniProt P41144).
T1 construct: membranous receptors of a guinea pig; from tissue
As to the kind of experiment: Displacement of specific radioactive ligands, opiated kappa receptor. The class given is binding, guinea pig. The conditions noted are these: inhibition of 50% of radioligand bonds; read-out: CI50 affinity kappa rec. Here is the method:
(§1) The analysis is carried out in accordance with the technique described by F. Roman et al. in J. Pharm. Pharmcol. 1987, 39, p. 404-407 which consists of analysing the displacement of specific radioactive ligands of the opiated mu, delta and kappa sub receptors by the action of the test products on the membranous receptors of a guinea pig.

In experiment [3] the test system is bladder of the rat. In words: Transvesical cystomanometry on wide awake rat (urological activity). It is filed as in vivo, female rat. The settings on record: for change in vivo at 5 mg/kg / change in vivo at 2.5 mg/kg: Rattus norvegicus, iv; for change in vivo at 5 mg/kg: 5,0 mg/kg i.v.; for activity on the urinary tract compared to the reference compounds (in words): compared to Dicyclomine and Baclofen. Here is the method:
Studies by a similar method of operation, the compounds of the invention (I.A) which show a mu and kappa affinity also have an activity on certain functional parameters of the bladder of the rat which justifies their interest in the treatment of dysfunctions in the urinary tract.
The study carried out consists of transvesical cystomanometry on a wide awake rat. The following was measured during the storage and emission phases of urine under continuous intervesical perfusion of sterile physiological serum:
the "threshold pressure", which is the intervesical pressure immediately preceding the contraction phase of the detrusor
the volume of each urinary emission.
The technique used in the female rat consisted of preparing the animals 48 hours before the actual experiment by effecting the implantation of two catheters in the apex of the bladder and one catheter in the left-hand jugular vein under anaesthetic, with the external end of these catheters being protected and held by a sticking plaster corset.
The animals were placed in suitable cages at the time of the test, which were equipped so as to collect and measure the urine. For each animal one vesical catheter was connected to a pressure sensor, the other to a perfusor which supplied 0.2 ml/min. of sterile physiological serum continuously.
The intravesical pressure was measured continuously during the perfusion and it was possible to observe:
a filling phase of the bladder during which the pressure increased progressively,
a sudden rising phase of this pressure during the contraction of the detrusor: the "threshold" pressure which is the pressure observed just before the pressure of the contraction phase. This threshold pressure was raised in the same way as the urinary volume at each urination.
The study consisted of observing the changes in these parameters by the action of the products (IA) which were administered in solution by intravenous route by means of the catheter placed in the left jugular vein.
Dicyclomine and Baclofen which have been considered for the treatment of hyperactive bladders (Drugs of Today, Vol. 24, no. 5, 1988, p. 337-348) were also used in this test in the form of comparison products.

In experiment [4] the target is T2, opiated delta receptor (Cavia porcellus, UniProt A0A286XTF2).
T2 construct: membranous receptors of a guinea pig; from tissue
As to the kind of experiment: Displacement of specific radioactive ligands, opiated delta receptor. The class given is binding, guinea pig. The settings on record: inhibition of 50% of radioligand bonds; read-out: CI50 affinity delta rec. Here is the method: as §1

Experiment [5] has as its target opiated mu receptor (Cavia porcellus, UniProt A0ACM8Q262). The class given is binding, guinea pig. Here is the method:
as §1

Setting [6] is: ip, * p<0.05, ** p<0.01, *** p<0.001.
Where [7] appears, read: po, * p<0.05, ** p<0.01, *** p<0.001.
The mark [8] stands for this setting: read-out: % variation pressure threshold.
Setting [9] is: inhibition of 50% of radioligand bonds; read-out: CI50 affinity mu rec.

T2 sequence (A0A286XTF2 1-366): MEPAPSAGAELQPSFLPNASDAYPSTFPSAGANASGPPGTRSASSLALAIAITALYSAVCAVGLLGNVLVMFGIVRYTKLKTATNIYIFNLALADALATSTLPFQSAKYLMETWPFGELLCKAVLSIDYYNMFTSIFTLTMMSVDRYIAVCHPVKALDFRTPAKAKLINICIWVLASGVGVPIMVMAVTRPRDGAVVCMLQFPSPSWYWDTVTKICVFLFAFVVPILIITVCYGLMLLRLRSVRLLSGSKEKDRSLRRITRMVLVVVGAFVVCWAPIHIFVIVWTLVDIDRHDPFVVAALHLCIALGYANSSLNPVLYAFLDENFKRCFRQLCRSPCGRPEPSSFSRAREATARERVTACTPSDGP
T1 sequence (P41144 whole entry): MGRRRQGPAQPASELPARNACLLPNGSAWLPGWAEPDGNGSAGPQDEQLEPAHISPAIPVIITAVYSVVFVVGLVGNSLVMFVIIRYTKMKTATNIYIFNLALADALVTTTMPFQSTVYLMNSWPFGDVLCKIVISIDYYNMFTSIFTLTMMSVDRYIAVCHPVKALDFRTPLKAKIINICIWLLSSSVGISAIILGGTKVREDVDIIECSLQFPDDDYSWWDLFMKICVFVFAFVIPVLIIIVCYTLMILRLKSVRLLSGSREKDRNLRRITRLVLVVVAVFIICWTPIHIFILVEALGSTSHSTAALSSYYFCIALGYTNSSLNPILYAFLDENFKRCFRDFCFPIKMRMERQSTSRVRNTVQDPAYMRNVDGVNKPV
Sequence of opiated mu receptor (A0ACM8Q262 1-400): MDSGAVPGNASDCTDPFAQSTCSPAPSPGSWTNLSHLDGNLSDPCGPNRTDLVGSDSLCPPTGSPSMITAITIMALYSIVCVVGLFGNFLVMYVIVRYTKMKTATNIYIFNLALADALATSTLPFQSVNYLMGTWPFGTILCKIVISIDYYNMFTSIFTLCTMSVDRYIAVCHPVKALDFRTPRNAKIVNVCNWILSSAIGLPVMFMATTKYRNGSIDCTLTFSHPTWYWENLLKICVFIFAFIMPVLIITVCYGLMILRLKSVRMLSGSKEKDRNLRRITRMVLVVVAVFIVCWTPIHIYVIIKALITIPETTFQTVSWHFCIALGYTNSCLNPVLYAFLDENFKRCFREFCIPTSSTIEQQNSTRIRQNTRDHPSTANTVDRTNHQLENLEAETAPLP

`CNC(CC=Cc1ccc(Cl)c(Cl)c1)(c1ccccc1)C(C)C` (centres unmarked) [Example 23, a-(3',4'-dichloro)cinnamyl-a-isopropyl-N-methyl-benzylamine]: in experiment [1] (setting [6]), the responders at 50 mg/kg stood at 60%. Further, the responders at 100 mg/kg in experiment [1] (setting [7]) worked out at 100%. In addition, the IC50 in experiment [2] is 340 nM; in experiment [4], 1380 nM; in experiment [5] (setting [9]) it was 80 nM. Also, the change in vivo at 5 mg/kg in experiment [3] (setting [8]) came out at 196%; in experiment [3] (read-out: % variation volume), 35%.
Turning to `CCC(CC=Cc1ccccc1)(c1ccc(Cl)cc1)N(C)C` (single isomer, unassigned; (+)) [Example 52, (+) a-cinnamyl-N,N-dimethyl-a-ethyl-p.chlorobenzylamine], the responders at 50 mg/kg in experiment [1] (setting [6]) turned out to be 70%. The responders at 100 mg/kg in experiment [1] (setting [7]) was determined as 90%. Also, the results for the IC50 in experiment [2] and in experiment [5] (setting [9]) were 99 nM and 7 nM, respectively. Moreover, the “activity on the urinary tract compared to the reference compounds (in words)” value in experiment [3] is on record as “important activity”.
Consider `NCC(CC(=O)O)c1ccc(Cl)cc1` (centres unmarked) [Baclofen, reference compound], for which the change in vivo at 2.5 mg/kg in experiment [3] (setting [8]) was determined as 113%; in experiment [3] (read-out: % variation volume) it was 32%. In addition, in experiment [3], the “activity on the urinary tract compared to the reference compounds (in words)” value is given as “most active comparative product in these tests”.
Take `CCC(CC=Cc1ccc(Cl)c(Cl)c1)(NC)c1ccc(Cl)cc1` (centres unmarked) [Example 26, a-(3' ,4'-dichloro)cinnamyl-a-ethyl-N-methyl-p.chlorobenzylamine]: the IC50 amounted to 458 nM in experiment [2], 1070 nM in experiment [4] and 28 nM in experiment [5] (setting [9]). Further, the change in vivo at 5 mg/kg in experiment [3] (setting [8]) is 229%; in experiment [3] (read-out: % variation volume) it was 93%.
As for `CCN(CC)CCOC(=O)C1(C2CCCCC2)CCCCC1` [Dicyclomine, reference compound], the change in vivo at 2.5 mg/kg in experiment [3] (2,5 mg/kg i.v., read-out: % variation pressure threshold) worked out at 28%; in experiment [3] (2,5 mg/kg i.v., read-out: % variation volume), 20%.
In the case of `CCC(CC=Cc1ccccc1)(c1ccc(C)cc1)N(C)C` (centres unmarked) [Example 33], the IC50 in experiment [2] was 120 nM; in experiment [4] it was 1230 nM; in experiment [5] (read-out: CI50 affinity mu rec.; inhibition of 50% of radioligand bonds), 50 nM. In addition, the “activity on the urinary tract compared to the reference compounds (in words)” value in experiment [3] is “important activity”.
On to `CCC(CC=Cc1ccc(Cl)c(Cl)c1)(NC)c1ccc(C)cc1` (centres unmarked) [Example 24, a-(3',4'-dichloro)cinnamyl-a-ethyl-N-methyl-p.methylbenzylamin], for which the “p.o.: DE50” value in experiment [1] (p.o. route, value printed with a % sign) is 73,5%. Besides, the IC50 in experiment [2] stood at 410 nM; in experiment [4], 1400 nM; in experiment [5] (setting [9]), 21 nM.
As to `CCC(CC=Cc1ccccc1)(c1ccsc1)N(C)C` (centres unmarked) [Example 67, a-cinnamyl-N,N-dimethyl-a-ethyl-3-thienylmethylamine], the responders at 50 mg/kg in experiment [1] (setting [6]) came out at 70%. Also, the responders at 100 mg/kg in experiment [1] (setting [7]) worked out at 100%.
As to `CCC(CC=Cc1ccsc1)(c1ccccc1)N(C)C` (centres unmarked) [Example 56, N,N-dimethyl-a-ethyl-a-[30(3-thienyl)-2-propenyl]-benzylamine], the responders at 50 mg/kg in experiment [1] (setting [6]) is 70%. Also, the responders at 100 mg/kg in experiment [1] (setting [7]) was found to be 80%.
Consider `CCC(N)(CC=Cc1ccccc1)c1ccc(Cl)cc1` (single isomer, unassigned; (-)) [Example 17B, (-)a-cinnamyl-a-ethyl-p.chlorobenzylamine], for which, in experiment [1] (50 mg/kg i.p., picrotoxine 24 mg/kg i.p. 30 min later, * p<0.05, ** p<0.01, *** p<0.001), the “i.p.: % prot. (percentage of protected animals)” value turned out to be 80%. Besides, the “p.o.: % prot. (percentage of protected animals)” value in experiment [1] (100 mg/kg p.o., picrotoxine 24 mg/kg i.p. 60 min later, * p<0.05, ** p<0.01, *** p<0.001) is given as 50%. Also, the IC50 in experiment [5] (setting [9]) came to 11.4 nM.
With `CCC(CC=Cc1ccccc1)(c1ccc(Cl)c(Cl)c1)N(C)C` (centres unmarked) [Example 32, a-cinnamyl-N,N-dimethyl-a-ethyl-(3,4-dichloro)benzylamine], the responders at 50 mg/kg in experiment [1] (setting [6]) amounted to 50%. Moreover, in experiment [1] (setting [7]), the responders at 100 mg/kg is 60%.
The like results for `CCC(N)(CC=Cc1ccccc1)c1ccccc1` (centres unmarked) [Example 3, a-cinnamyl-a-ethyl-benzylamine] were, in that order, 80% and 100%.
The corresponding values for `CCC(CC=Cc1ccccc1)(NC)c1ccc(OC)cc1` (centres unmarked) [Example 22, a-cinnamyl-a-ethyl-N-methyl-p.methoxybenzylamine] are 80% and 100%.
The like results for `CCC(CC=Cc1ccccc1)(NC)c1ccccc1` (centres unmarked) [Example 18, a-cinnamyl-a-ether-N-methyl-benzylamine] were, in that order, 80% and 100%.
Take `CCC(C[C@@H]1C[C@H]1c1ccccc1)(c1ccsc1)N(C)C` (relative stereo) [Example 68, trans N,N-dimethyl-a-ethyl-a-(2-phenyl-1-cyclopropylmethyl)-3-trienylmethylamine]: the responders at 50 mg/kg in experiment [1] (setting [6]) was determined as 100%.
As for `CCC(N)(CC=Cc1ccccc1)c1ccc(C)cc1` (centres unmarked) [Example 6, a-cinnamyl-a-ethyl-p.methylbenzylamine], in experiment [1] (setting [6]), the responders at 50 mg/kg was determined as 70%. Besides, the responders at 100 mg/kg in experiment [1] (setting [7]) came to 70%.
In the case of `CC(N)(CC=Cc1ccc(Cl)c(Cl)c1)c1ccccc1` (centres unmarked) [Example 9, a-(3',4'-dichloro) cinnamyl-a-methylbenzylamine], the responders at 50 mg/kg in experiment [1] (setting [6]) worked out at 100%.
As for `CCC(C[C@@H]1C[C@H]1c1ccccc1)(c1cccs1)N(C)C` (relative stereo) [Example 63, trans N,N-dimethyl-a-ethyl-a-(2-phenyl-1-cyclopropylmethyl)-2-thienylmethylmaine], the responders at 50 mg/kg in experiment [1] (setting [6]) amounted to 60%. Also, in experiment [1] (setting [7]), the responders at 100 mg/kg is 50%.
For the compound `CCCN(C)C(CC)(CC=Cc1ccccc1)c1ccccc1` (centres unmarked) [Example 47, a-cinnamyl-a-ethyl-N-methyl-N-propylbenzylamine], the ED50 in experiment [1] (ip, read-out: i.p.: DE50) turned out to be 58.2 mg/kg; in experiment [1] (po, read-out: p.o.: DE50), 65 mg/kg.
With `CCCCCC(CC=Cc1ccccc1)(c1ccccc1)N(C)C` (centres unmarked) [Example 42, a-cinnamyl-N,N-dimethyl-a-pentyl-benzylamine], the ED50 in experiment [1] (po, read-out: p.o.: DE50) amounted to 65 mg/kg.
As for `CCC(CC=Cc1cc(OC)c(OC)c(OC)c1)(c1ccccc1)N(C)C` (centres unmarked) [Example 37], the IC50 in experiment [2] was 230 nM; in experiment [4], 150 nM; in experiment [5] (setting [9]), 100 nM. In addition, the results for the change in vivo at 5 mg/kg in experiment [3] (setting [8]) and in experiment [3] (read-out: % variation volume) were 188% and 53%, respectively.
